For 4 molecules, IC50 results are on record in patent publication US20170362243A1, “BIARYLETHER IMIDAZOPYRAZINE BTK INHIBITORS” (MERCK SHARP & DOHME CORP., priority 2014, published 2017).

The target of this experiment is T1, BTK enzyme (recombinant full-length BTK, hBTK) (Homo sapiens, UniProt Q06187).
T1 construct: recombinant protein from baculovirus-transfected Sf9 cells: full-length BTK, 6HIS-tag cleaved; 6HIS (cleaved yes); made in house; host or cells: baculovirus-transfected Sf9 cells
T1 sequence (Q06187 whole entry): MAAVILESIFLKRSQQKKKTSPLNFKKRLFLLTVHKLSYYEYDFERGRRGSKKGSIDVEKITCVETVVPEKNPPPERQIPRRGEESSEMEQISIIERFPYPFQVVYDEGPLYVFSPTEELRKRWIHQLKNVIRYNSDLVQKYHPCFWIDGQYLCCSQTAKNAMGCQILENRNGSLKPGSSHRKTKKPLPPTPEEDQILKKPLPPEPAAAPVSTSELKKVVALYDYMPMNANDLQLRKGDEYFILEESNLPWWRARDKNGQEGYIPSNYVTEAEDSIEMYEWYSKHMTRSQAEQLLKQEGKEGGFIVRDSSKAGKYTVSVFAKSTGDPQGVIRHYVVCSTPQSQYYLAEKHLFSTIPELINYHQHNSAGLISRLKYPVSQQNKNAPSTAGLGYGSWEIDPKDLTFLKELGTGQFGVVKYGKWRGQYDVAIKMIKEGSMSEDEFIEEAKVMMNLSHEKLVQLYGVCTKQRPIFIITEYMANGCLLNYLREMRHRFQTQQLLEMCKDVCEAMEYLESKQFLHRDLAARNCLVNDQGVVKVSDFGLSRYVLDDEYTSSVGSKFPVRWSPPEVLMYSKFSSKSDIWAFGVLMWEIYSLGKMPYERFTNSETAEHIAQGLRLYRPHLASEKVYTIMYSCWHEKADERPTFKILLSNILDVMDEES
In words: Btk enzyme activity assay, LANCE TR-FRET. Format: biochemical. The note with it: 50 pM hBTK, 2 μM biotin-A5-peptide, 25 μM ATP, 60 minute compound & enzyme incubation, read-out: BTK binding IC50. On the procedure: BTK enzymatic activity was determined with the LANCE (Lanthanide Chelate Excite) TR-FRET (Time-resolved fluorescence resonance energy transfer) assay. In this assay, the potency (IC50) of each compound was determined from an eleven point (1:3 serial dilution; final compound concentration range in assay from 1 μM to 0.017 nM) titration curve using the following outlined procedure. To each well of a black non-binding surface Corning 384-well microplate (Corning Catalog #3820), 5 nL of compound (2000 fold dilution in final assay volume of 10 μL) was dispensed, followed by the addition of 7.5 μL of 1× kinase buffer (50 mM Hepes 7.5, 10 mM MgCl2, 0.01% Brij-35, 1 mM EGTA, 0.05% BSA & 1 mM DTT) containing 5.09 pg/μL (66.67 pM) of BTK enzyme (recombinant protein from baculovirus-transfected Sf9 cells: full-length BTK, 6HIS-tag cleaved). Following a 60 minute compound & enzyme incubation, each reaction was initiated by the addition of 2.5 μL 1× kinase buffer containing 8 μM biotinylated “A5” peptide (Biotin-EQEDEPEGDYFEWLE-NH2) (SEQ.ID.NO.: 1), and 100 μM ATP. The final reaction in each well of 10 μL consists of 50 pM hBTK, 2 μM biotin-A5-peptide, and 25 μM ATP. Phosphorylation reactions were allowed to proceed for 120 minutes. Reactions were immediately quenched by the addition of 20 uL of 1× quench buffer (15 mM EDTA, 25 mM Hepes 7.3, and 0.1% Triton X-100) containing detection reagents (0.626 nM of LANCE-Eu-W1024-anti-phosphoTyrosine antibody, PerkinElmer and 86.8 nM of Streptavidin-conjugated Dylight 650, Dyomics/ThermoFisher Scientific). After 60 minutes incubation with detection reagents, reaction plates were read on a PerkinElmer EnVision plate reader using standard TR-FRET protocol. Briefly, excitation of donor molecules (Eu-chelate:anti-phospho-antibody) with a laser light source at 337 nm produces energy that can be transferred to Dylight-650 acceptor molecules if this donor:acceptor pair is within close proximity. Fluorescence intensity at both 665 nm (acceptor) and 615 nm (donor) are measured and a TR-FRET ratio calculated for each well (acceptor intensity/donor intensity). IC50 values were determined by 4 parameter robust fit of TR-FRET ratio values vs. (Log10) compound concentrations.
The following Table 3 provides specific IC50 values for all the examples. The IC50 values set forth below were determined according to Assay method described above.
(In general: TR-FRET usually uses a lanthanide donor and a delayed reading to cut background.)
A word on the IC50: it is the midpoint of a concentration-inhibition curve. Regarding `Nc1nccn2c(C34C=CC(C(=O)O)(CC3)CC4)nc(-c3ccc(Oc4ccccc4)cc3)c12` [Example 22, 4-[8-amino-1-(4-phenoxyphenyl)imidazo[1,5-a]pyrazin-3-yl]bicyclo[2.2.2]oct-2-ene-1-carboxylic acid], the IC50 is 0.26 nM.

Take `Nc1nccn2c(C34C5C6C3C3C4C5C63C(=O)O)nc(-c3ccc(Oc4ccccc4)cc3)c12` (stereo not shown) [Example 23, 4-(8-amino-1-(4-phenoxyphenyl)imidazo[1,5-a]pyrazin-3-yl)cubane-1-carboxylic acid]: the IC50 was 0.3 nM.

With `Nc1nccn2c(C3(C(=O)O)CCOCC3)nc(-c3ccc(Oc4ccccc4)cc3)c12` [Example 24, 4-[8-amino-1-(4-phenoxyphenyl)imidazo[1,5-a]pyrazin-3-yl]tetrahydro-2H-pyran-4-carboxylic acid], the half-maximal inhibitory concentration (IC50) came out at 79.6 nM.

`C[C@]1(C(=O)O)CC[C@H](c2nc(-c3ccc(Oc4ccccc4)cc3)c3c(N)nccn32)CC1` [Example 25, Trans-4-[8-amino-1-(4-phenoxyphenyl)imidazo[1,5-a]pyrazin-3-yl]-1-methylcyclohexane carboxylic acid]: the IC50 is 12.3 nM.
